Data reported in paper PMC5689723, “Targeting aggressive prostate cancer-associated CD44v6 using phage display selected peptides” (Oncotarget, 2017).
Read-outs that look alike come from different tables or passages of the source. Ends that are not written are not given here. Peptide text beside a SMILES is read from it. * marks the point of attachment. Biotin = O=C1N[C@H]2[C@H](CS[C@H]2CCCCC(=O)*)N1

Legend:
recombinant CD44v6-Fc = target: T1, recombinant CD44v6-Fc (Homo sapiens, UniProt P16070, DEL223-384/DEL429-575); test: Peptide-Protein ELISA, recombinant CD44v6-Fc; assay type: binding; details: 2 h at RT, 490 nm; for Kd: biotinylated peptide, CD44v6-Fc coated at 1 μg/ml, pH 9.6, 0.5% BSA in PBST, HRP-streptavidin, nonlinear regression, GraphPad Prism 6.0; for binding to recombinant CD44v6-Fc (in words): biotinylated synthetic peptides, various concentrations, Figure 2C, 2D
T1 construct: the ECD of CD44 and CD44v6 protein were expressed as Fc-tagged proteins; made in house; host or cells: CHO-K1 cells, purified by protein A chromatography
From the text: Figure 2 Characterization of peptide binding to recombinant CD44v6 (A) Schematic of recombinant CD44v6-Fc and CD44-Fc expression construct. The number of constant exons (1-5 and 15-17) are marked. (B) SDS-PAGE analysis and immunoblotting of purified CD44v6-Fc and CD44-Fc (M, BioRad precision plus all blue prestained protein standard; lane 1, CD44v6-Fc; lane 2, CD44-Fc). For SDS-PAGE analysis, the purified proteins were detected by coomassie blue staining. For immunoblotting, the mouse anti-human Fc Ab or mouse anti-human v6 region specific mAb VFF18 was used as the primary Ab and HRP conjugated goat anti-mouse Ab was used as the secondary Ab. (C) ELISA analysis of the dose dependent recombinant CD44v6-Fc binding ability of four biotinylated peptides. […] The maximal ELISA absorbance value of PFT binding to CD44v6-Fc was used to normalize the binding signal of individual peptides. The specific binding curve was generated using GraphPad Prism 6.0 software and absolute Kd values were calculated using nonlinear regression. (D) The specificity of PFT binding to recombinant CD44v6-Fc. Different concentrations of PFT and its two scrambled peptide versions were incubated with immobilized CD44v6-Fc or CD44-Fc, respectively for ELISA analyses. The maximal ELISA absorbance value of PFT binding to CD44v6-Fc was used to normalize the binding signal of individual peptides. The specific binding curve was generated using GraphPad Prism 6.0 software.
An ELISA was performed to analyze the binding of synthesized biotinylated peptides to recombinant CD44-Fc or CD44v6-Fc. Briefly, 100 μl of recombinant protein at 1 μg/ml in 0.05 M carbonate/bicarbonate coating buffer (pH 9.6) was added to each well of a 96-well microtiter plate and coated for 24 h at 4°C. The plates were blocked with 1% BSA in PBST buffer (0.05% Tween 20 in PBS) and then incubated with 100 μl of peptides or antibodies at various concentrations in 0.5% BSA in PBST for 2 h at RT. After washing extensively for five times with PBST buffer, the plates were incubated with 100 μl of HRP-conjugated streptavidin (1:2000 diluted with 0.5% BSA in PBST buffer) for 1 h at RT. After washing five times with PBST buffer, the Sigma fast O-phenylenediamine dihydrochloride tablets (Sigma-Aldrich, St. Louis, MO) were used as substrates and the absorbance was measured at 490 nm using an endpoint assay on a μQuant Universal Microplate Spectrophotometer (Bio-Tek Instruments, Winooski, VT).
For binding analysis, the ECD of CD44 and CD44v6 protein were expressed as Fc-tagged proteins (Figure 2A). Exon numbering was performed according to the study of Screaton et al. The ECD of CD44 was engineered as an N-terminal constant sequence (exons 1–5) followed by a nonvariable stretch at the C-terminus (exons 15–17) (Figure 2A). […]

[1] = system: v6 region peptide (KEQWFGNRWHEGYR) of CD44v6; test: Peptide-Peptide ELISA, v6 region peptide; assay type: binding, human; details: biotinylated peptides 10 μM, v6 and control peptides 2 μM on streptavidin plate; 25 mM Tris pH 7.2, 150 mM NaCl, 0.1% BSA, 0.05% Tween-20; 2 h at RT; 490 nm; Figure 1D
Met signaling = details: v6 peptide derivative; ref [36]; cited from earlier work
VFF18 = details: amino acids 19-29 of the v6 domain; ref [55]; cited from earlier work
From the text: Affinity selection of phage displaying peptides typically involves passing the phage library over desired target molecules, such as protein biomarkers of cancer. In this study, we aimed to obtain peptides specific to the v6 region of human CD44v6, a putative aggressive cancer and/or CSC biomarker. However, the v6 region contains only 45 amino acids while the CD44v6-ECD consists of 290 amino acids. […] VFF18 is a murine mAb gene ...

SORE6-GFP^- cells = system: SORE6-GFP^- cells; parameters: method as in PMID 22439924; details: treatment with doxorubicin; proportion of SORE6-GFP^+ cells increased dramatically; ref [41]; cited from earlier work
PC3M cells = test: MTT assay, PC3M cells; assay type: cell-based; details: Homo sapiens, PC-3M, 48 h, 5000 cells per well, triplicate, 562 nm, P< 0.05 vs v6A3, read-out: DOX IC50 of PC3M
Experimental: To determine the dose response of drug-resistant PC3M1G4 cell lines, PC3M and v6A3 cells were seeded in triplicate in 96-well plates at 5000 cells per well and incubated for 24 h. A range of concentrations (1000, 100, 10, 1, 0.1, 0.01, 0.001, 0.0001 nM) of DOX in fresh medium were added to the cells. Control cells were treated with appropriate volumes of fresh medium. After 48 h, 20 μl of MTT (3-(4,5-dimethylthiazol-2-yl)-2,5-diphenyltetrazolium bromide) (5 mg/ ml) (Sigma-Aldrich, St. Louis, MO) was added to each well, followed by incubation at 37°C in 5% CO2 for 4 h. Subsequently, 100 μl of DMSO (Sigma-Aldrich, St. Louis, MO) was added and the plate was shaken for 20 min at RT to dissolve the formazan crystals. The optical density (absorbance units) was read at a wavelength of 562 nm on a μQuant Universal Microplate Spectrophotometer (Bio-Tek Instruments, Winooski, VT). The growth inhibition curve was generated using GraphPad Prism 6.0 software (GraphPad Software Inc., San Diego, CA). Absolute IC50 values were calculated using the log inhibitor vs. response curves for nonlinear regression.

CD44v6 = test: Immunohistofluorescence, human PCa tissue microarrays; details: T3N2M1 (grade III) TMA sample; 50 μM peptide; Figure 10C
[2] = target: CD44v6-Fc ECD (exons 1-5, v6 exon 10, exons 15-17) (Homo sapiens), P16070; test: ELISA; details: N-terminal biotin on peptide, Fc fusion of CD44v6
Chain of CD44v6-Fc ECD (exons 1-5, v6 exon 10, exons 15-17) (Homo sapiens), P16070 (P16070 whole entry, looked up, change not shown, the tested form may be a part): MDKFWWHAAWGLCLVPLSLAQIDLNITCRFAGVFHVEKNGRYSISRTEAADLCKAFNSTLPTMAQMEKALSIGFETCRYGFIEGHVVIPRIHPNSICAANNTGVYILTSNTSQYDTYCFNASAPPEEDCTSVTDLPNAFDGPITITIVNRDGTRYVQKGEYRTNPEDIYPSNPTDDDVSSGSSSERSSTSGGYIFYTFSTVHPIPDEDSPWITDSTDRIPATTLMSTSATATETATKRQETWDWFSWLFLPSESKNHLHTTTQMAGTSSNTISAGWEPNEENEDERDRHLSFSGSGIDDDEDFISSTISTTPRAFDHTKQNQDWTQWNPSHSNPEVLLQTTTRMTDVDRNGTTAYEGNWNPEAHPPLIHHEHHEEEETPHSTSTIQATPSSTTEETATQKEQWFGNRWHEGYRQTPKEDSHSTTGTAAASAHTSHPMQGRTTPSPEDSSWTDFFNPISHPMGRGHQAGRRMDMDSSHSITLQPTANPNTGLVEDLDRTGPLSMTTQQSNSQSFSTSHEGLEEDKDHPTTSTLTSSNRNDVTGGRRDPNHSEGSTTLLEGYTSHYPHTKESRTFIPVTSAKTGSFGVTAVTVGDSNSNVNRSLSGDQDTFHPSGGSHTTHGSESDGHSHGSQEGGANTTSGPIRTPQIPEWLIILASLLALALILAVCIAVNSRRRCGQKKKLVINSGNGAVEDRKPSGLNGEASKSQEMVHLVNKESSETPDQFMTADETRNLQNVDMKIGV

T1 sequence (P16070 with tags, fused parts or gaps isoform P16070-7 DEL223-384/DEL429-575 limits assumed): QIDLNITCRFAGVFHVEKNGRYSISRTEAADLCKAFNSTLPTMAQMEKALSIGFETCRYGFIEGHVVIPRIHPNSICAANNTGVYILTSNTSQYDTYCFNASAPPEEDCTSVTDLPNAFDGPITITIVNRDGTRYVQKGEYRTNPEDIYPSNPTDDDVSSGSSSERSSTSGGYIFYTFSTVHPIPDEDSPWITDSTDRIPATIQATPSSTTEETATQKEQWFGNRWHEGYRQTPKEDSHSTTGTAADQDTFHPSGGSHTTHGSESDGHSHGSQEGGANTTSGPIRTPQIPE

Molecule: CC(C)[C@H](NC(=O)[C@H](Cc1ccccc1)NC(=O)[C@@H]1CCCN1C(=O)[C@@H](NC(=O)[C@H](CO)NC(=O)[C@@H](NC(=O)[C@@H](NC(=O)[C@H](Cc1ccccc1)NC(=O)[C@@H]1CCCN1C(=O)CNC(=O)[C@H](CO)NC(=O)CNC(=O)CCCC[C@@H]1SC[C@@H]2NC(=O)N[C@@H]21)[C@@H](C)O)C(C)C)C(C)C)C(=O)N[C@@H](Cc1c[nH]c2ccccc12)C(=O)N[C@@H](CC(N)=O)C(=O)N[C@@H](Cc1ccccc1)C(=O)N[C@H](C(=O)N[C@@H](C)C(=O)N[C@@H](CC(=O)O)C(=O)O)[C@@H](C)O [PFT] (Biotin-GSGPFTVSVPFVWNFTAD-OH)
- Kd (recombinant CD44v6-Fc; read-out: apparent affinity (equilibrium dissociation constant, Kd) to recombinant CD44v6): 0.743 ± 0.153 µM

Molecule: VSVWFVTANFPPFTD [scr2]
- binding to recombinant CD44v6-Fc (in words) (recombinant CD44v6-Fc): negligible binding to CD44v6-Fc

Molecule: Biotin-GSG-SAYDRPL (Biotin-GSGSAYDRPL)
- binding of synthetic peptides to v6 region peptide compared to control peptide (in words) [1]: increased binding to v6 region peptide compared to control peptide

Molecule: Biotin-GSG-WSNKGYD
- binding of synthetic peptides to v6 region peptide compared to control peptide (in words) [1]: increased binding to v6 region peptide compared to control peptide

Molecule: KEQWFGNRWHEGYR [selection target]
- inhibition of Met signaling (in words) (Met signaling): inhibited Met signaling

Molecule: WFGNRWHEGYR [peptide corresponding to amino acids 19-29 of the v6 domain]
- epitope for VFF18 binding (in words) (VFF18): minimum sequence required for high-affinity binding of VFF18

Molecule: COc1cccc2c1C(=O)c1c(O)c3c(c(O)c1C2=O)C[C@@](O)(C(=O)CO)C[C@@H]3O[C@H]1C[C@H](N)[C@H](O)[C@H](C)O1 [DOX, doxorubicin]
- cell death among SORE6-GFP^- cells on DOX treatment (in words) (SORE6-GFP^- cells): extensive cell death was observed among SORE6-GFP^- cells
- IC50 (PC3M cells): 51.6 nM

Molecule: CC(C)[C@H](NC(=O)[C@H](CO)NC(=O)[C@H](CO)NC(=O)[C@@H](NC(=O)[C@H](CCCNC(=N)N)NC(=O)[C@@H]1CCCN1C(=O)CNC(=O)[C@H](C)NC(=O)[C@H](Cc1c[nH]c2ccccc12)NC(=O)CNC(=O)[C@H](CO)NC(=O)CNC(=O)CCCC[C@@H]1SC[C@@H]2NC(=O)N[C@@H]21)C(C)C)C(=O)N[C@@H](Cc1ccc(O)cc1)C(=O)N[C@@H](Cc1ccc(O)cc1)C(=O)N[C@@H](C)C(=O)NCC(=O)N[C@@H](C)C(=O)N[C@@H](CCCNC(=N)N)C(=O)O [WAG] (Biotin-GSGWAGPRVSSVYYAGAR-OH)
- Kd (recombinant CD44v6-Fc; read-out: apparent affinity (Kd) to recombinant CD44v6): 8.67 ± 1.85 µM

Molecule: VTPVFSFATPNFVDW [scr1]
- binding to recombinant CD44v6-Fc (in words) (recombinant CD44v6-Fc): negligible binding to CD44v6-Fc
- staining of PCa tissue by scrambled peptide (in words) (CD44v6): no staining

Molecule: Biotin-GSGWAGPRVSSVYYAGAR [WAG]
- Kd [2]: 8.67 µM

Molecule: Biotin-GSGPFTVSVPFVWNFTAD [PFT]
- Kd [2]: 0.743 µM
